Measured values: US10314885B2, “Oxytocin treatment to modify blood glucose and treat metabolic disease” (The Regents of the University of California, priority 2010, dated 2019)
Marks after values point to notes of the source that are not given here.

Tests used:
Assay type in all cases: in vivo, human
[1] = test system: Subjects with a DSM-IV diagnosis of schizophrenia; assay: Reported adverse events in the crossover study
Description: (§1) Study Drugs. Subjects were maintained on their pre-study antipsychotic medication regimen and doses were not changed during the study. Subjects received 3-weeks of daily intranasal oxytocin (Syntocinin, Novartis, Basel Switzerland) and 3-weeks of daily intranasal placebo. Oxytocin was dosed at 20 IU (5 sprays) twice a day for the first week and 40 IU (10 sprays) twice a day thereafter. Order of treatment (placebo-oxytocin or oxytocin-placebo) was randomly assigned using a computer generated random sequence.
(§2) Safety was assessed at each visit by a medical exam, and assessments of reported adverse events. In addition, urine was collected for osmolality testing and blood was drawn at each visit and analyzed at UCSD laboratories for basic chemistry analysis. Statistical Methods. Data from all subjects who received at least one dose and one assessment in both treatment periods (intent-to-treat population) were subjected to analysisusing SPSS version 11.0. Baseline scores for both drug treatments were compared for similarity using paired t-test. The change in baseline scores from period 1 to period 2 was compared among the placebo-oxytocin versus oxytocin-placebo group using a two-sample t-test to assess for period carry-over effects. PANNS and CGI data were subjected to repeated measures ANOVA with drug and treatment-week as repeated measures factors. Treatment sequence was included as a between-subjects factor to evaluate possible period and carry-over effects. Paired t-tests, corrected for multiple-comparisons using Bonferoni method were used to compare placebo and oxytocin scores at endpoint and each the other assessment visits. Cohen's d statistic was calculated for each measure at endpoint.

[2] = test system: Subjects with a DSM-IV diagnosis of schizophrenia; assay: Letter Number Sequencing subtest (LNS) of WAIS-III; conditions: after 3 weeks of intranasal oxytocin
Source text: (§3) Participants. Subjects with a DSM-IV diagnosis of schizophrenia, confirmed by SCID interview, were enrolled in a double-blind, placebo-controlled, crossover study. Other main inclusion criteria were: minimum 18 years of age, treatment with 1 or 2 approved antipsychotic medication with no dose changes in the previous four weeks, a minimum Positive and Negative Syndrome Scale (PANSS) score of at least 55 with a minimum score of 4 and a Clinical Global Impressions-Severity (CGI-S) scale score of at least 4 (moderately ill) at randomization.
Study Drugs. Subjects were maintained on a stable dose of their pre-study antipsychotic medication regimen. In addition to their antipsychotics, subjects received 3-weeks of daily intranasal oxytocin (Syntocinin, Novartis, Basel Switzerland) dosed 20 IU twice a day for the first week and then 40 IU twice a day for weeks two and three, and 3-weeks of daily intranasal placebo. […]
The Letter Number Sequencing subtest (LNS) is a component of the larger WAIS-III and is used to measure attention and working memory. […] In each trial of the LNS, a list of letters and numbers are read in a mixed order to participants; participants are asked to recall first the digits and then the letters in the order they were presented. […] Scores are calculated by totaling the correct responses for each length. […]

[3] = test system: Subjects with a DSM-IV diagnosis of schizophrenia; assay: PANSS and CGI efficacy assessment, double-blind placebo-controlled crossover study of adjunctive intranasal oxytocin; conditions: for CGI-Severity score: Baseline of oxytocin arm (CGI-Severity, not CGI-Improvement); for CGI-I Cohen's d / PANSS Negative Cohen's d / PANSS Total Cohen's d: Week 3, oxytocin vs placebo; for PANSS Total Cohen's d: 0.2 small, 0.5 medium, 0.8 large
Source text: as §3, with “in this” for “in a”, “weeks,” for “weeks, a minimum”, “55” for “55 with a minimum score of 4”, “randomization. Because it was hypothesized that oxytocin may improve paranoia due to its pro-trust effect, subjects were also required to have a score of at least 4 (moderate) on item 6 (suspiciousness/persecution) of the PANSS. This study was approved by the UCSD IRB and written informed consent was obtained from all subjects.” for “randomization.”
as §1
Efficacy and Safety assessments. Subjects, raters and study staff enrolling patients were blinded to treatment condition. The total study duration for each individual subject was 7 weeks. Subjects were evaluated […]. Visit 1 and 5 were baseline assessments and visits 2, 3, 4 and 6, 7, 8 were the weekly visits for the two treatment periods, respectively. Washout occurred in the week between visit 4 and 5. At each visit raters assessed subjects utilizing the PANSS, CGI-S and CGI-Improvement (CGI-I). PANSS-total at the final visit of each treatment period was chosen a′ priori as the primary efficacy endpoint.
as §2

[4] = Blood chemistry analysis and urine osmolality at endpoint
Description: as §1, §2

[5] = test system: Subjects with a DSM-IV diagnosis of schizophrenia; assay: California Verbal Learning Test (CVLT-II)
Source text: as §3
Study Drugs. Subjects were maintained on a stable dose of their pre-study antipsychotic medication regimen. In addition to their antipsychotics, subjects received 3-weeks of daily intranasal oxytocin (Syntocinin, Novartis, Basel Switzerland) dosed 20 IU twice a day for the first week and then 40 IU twice a day for weeks two and three, and 3-weeks of daily intranasal placebo. Order of treatment (placebo-oxytocin or oxytocin-placebo) was randomly assigned using a computer generated random sequence.
Safety and efficacy assessments. Subjects, raters, and study staff enrolling patients were blinded to treatment condition. The total study duration for each individual subject was 7 weeks, which included a baseline visit (V1), a three-week initial treatment period, a 1 week washout (between V4 and V5), a repeat baseline visit, and a three-week crossover treatment period. Subjects received the cognitive tests a total of 3 times: at baseline visits (V1, and after 3 weeks of treatment with placebo and oxytocin (V4, V7).
The CVLT-II is a commonly-used test of new learning and declarative verbal memory, which closely resembles the HVLT (Hopkins Verbal Learning Test), a part of the standardized MATRICS cognitive battery, now used to measure cognitive changes in Schizophrenia clinical trials. In the CVLT-II, lists of 16 words (List A) from various semantic categories are read over 5 trials. After each trial, subject is asked to recall as many words as they can (free recall). An interference list (List B) is then presented. Free and cued recall of List A is measured immediately following (short delay) and 20 minutes (long delay). At the end of the test, a 44 word recognition task is performed with subjects identifying target words among 28 distractors. The CVLT's format allows assessment of multiple aspects of cognition: overall recall ability, rate of learning over sequential trials, ability to retain learned material, and item recognition.
For each subtest a two-factor repeated ANOVA with drug treatment (placebo/oxytocin) and order of treatment as factors was conducted.

[6] = 3 weeks intranasal oxytocin, 15 completers
[7] = Baseline of oxytocin arm, mean (SD)
[8] = Week 1, intranasal 20 IU twice a day, mean (SD)
[9] = Week 2, intranasal 40 IU twice a day, mean (SD)
[10] = Week 3, intranasal 40 IU twice a day, mean (SD)
[11] = after 3 weeks of intranasal oxytocin, Mean (S.E.M.)

measured blood chemistry or urine osmolality, oxytocin versus placebo ([4]; at endpoint): no significant differences
BUN ([4]; blood, at endpoint): 10.8 mg/dL
Bicarb. ([4]; blood, at endpoint): 27.9 mmol/L
Calcium ([4]; blood, at endpoint): 9.3 mg/dL
Chloride ([4]; blood, at endpoint): 101.1 mmol/L
Creatinine ([4]; blood, at endpoint): 0.9 mg/dL
Potassium ([4]; blood, at endpoint): 4.4 mmol/L
Sodium ([4]; blood, at endpoint): 138.5 mmol/L
Urine Osmolality ([4]; urine, at endpoint): 607.9 mOsm/kg
Structure (SMILES): CC[C@H](C)[C@@H]1NC(=O)[C@H](Cc2ccc(O)cc2)NC(=O)[C@@H](N)CSSC[C@@H](C(=O)N2CCC[C@H]2C(=O)N[C@@H](CC(C)C)C(=O)NCC(N)=O)NC(=O)[C@H](CC(N)=O)NC(=O)[C@H](CCC(N)=O)NC1=O [Oxytocin, Cys-Tyr-Ile-Gln-Asn-Cys-Pro-Leu-Gly]
rates of reported adverse effects, oxytocin compared to placebo ([1]; 3 weeks each treatment): no significant differences
serious adverse events reported during the study ([1]; 3 weeks intranasal oxytocin twice daily): no serious adverse events
Dizzy or lightheaded, subjects reporting [1, 6]: 26.7%
Dyspepsia or nausea, subjects reporting [1, 6]: 26.7%
Headache, subjects reporting [1, 6]: 26.7%
Lethargy, subjects reporting [1, 6]: 0.0%
Nasal Irritation, subjects reporting [1, 6]: 26.7%
Sleep impairment, subjects reporting [1, 6]: 33.3%
tolerability ([1]; given twice daily for three weeks): well-tolerated
scores on the LNS, oxytocin versus placebo [2]: no significant difference
reduction on the PANSS-total ([3]; 3 weeks of treatment vs baseline (placebo 3.0 points)): 7.9 point
CGI-Severity score ([3]; mean (SD)): 4.67 (0.61)^
CGI-Severity score ([3]; mean (SD), listed as oxytocin): 4.67±0.74
PANSS Gen. Psy. score [3, 7]: 38.8 (7.6)
PANSS Negative score [3, 7]: 20.2 (4.7)
PANSS Positive score [3, 7]: 21.7 (4.1)
PANSS Total score ([3]; Baseline of oxytocin arm, mean (standard deviation)): 81.5 (12.4)
PANSS Total score ([3]; Baseline of oxytocin arm, mean (standard deviation), listed as oxytocin): 81.4±12.43
PANSS Total score ([3]; Week 1, intranasal 20 IU twice a day, adjunctive to antipsychotics, mean (SD)): 76.3 (11.3)
CGI-I score [3, 8]: 3.33 (0.62)
PANSS Gen. Psy. score [3, 8]: 36.4 (8.1)
PANSS Negative score [3, 8]: 20.1 (4.8)
PANSS Positive score [3, 8]: 20.6 (4.5)
PANSS Total score ([3]; Week 2, intranasal 40 IU twice a day, adjunctive to antipsychotics, mean (SD)): 76.9 (13.2)
CGI-I score [3, 9]: 3.33 (1.20)
PANSS Gen. Psy. score [3, 9]: 36.3 (8.2)
PANSS Negative score [3, 9]: 19.7 (4.3)
PANSS Positive score [3, 9]: 20.5 (4.6)
PANSS Total score ([3]; Week 3 (endpoint), intranasal 40 IU twice a day, adjunctive to antipsychotics, mean (SD)): 73.6 (13.6)**
CGI-I Cohen's d [3]: [0.74]
PANSS Negative Cohen's d [3]: [0.50]
PANSS Total Cohen's d [3]: [0.43]
PANSS Total Cohen's d ([3]; listed as oxytocin): 0.43
CGI-I Cohen's d ([3]; listed as oxytocin): 0.74
PANSS Negative Cohen's d ([3]; listed as oxytocin): 0.50
CGI-I score [3, 10]: 3.07 (0.70)**
PANSS Gen. Psy. score [3, 10]: 34.8 (6.9)
PANSS Negative score [3, 10]: 18.5 (4.5)*
PANSS Positive score [3, 10]: 19.9 (5.2)**
PANSS general psychopathology subscale, oxytocin versus placebo ([3]; any time point): not significantly different
PANSS-total difference oxytocin versus placebo ([3]; baseline): 0.60
PANSS-total scores, oxytocin versus placebo ([3]; endpoint (week 3) visit, p<0.001): significantly lower
PANSS-total difference oxytocin versus placebo ([3]; endpoint (week 3), p<0.001): 5.46
PANSS-total difference oxytocin versus placebo ([3]; week 1): 0.60
PANSS-total difference oxytocin versus placebo ([3]; week 2): 1.20
CGI-I, oxytocin versus placebo ([3]; week 3, P<0.001): significantly lower
PANSS positive subscale scores, oxytocin versus placebo ([3]; week 3, P=0.006): significantly lower
PANSS negative subscale scores, oxytocin versus placebo ([3]; week 3, p=0.023): significantly lower
Glucose ([4]; blood, at endpoint (week 3)): 112.5 mg/dL
blood glucose levels compared to placebo ([4]; intranasal administration): reduction in blood glucose levels
CVLT Long Delay Cued Recall Raw [5, 11]: 11.87 (0.97)
CVLT Long Delay Free Recall Raw [5, 11]: 10.87 (0.87)
CVLT Short Delay Cued Recall Raw [5, 11]: 12.00 (0.79)
CVLT Short Delay Free Recall Raw [5, 11]: 10.60 (1.03)
CVLT Total Intrusions Raw [5, 11]: 4.93 (1.90)
CVLT Total Recall Discriminability Raw [5, 11]: 2.22 (0.19)
CVLT Total Recognition Discriminability Raw [5, 11]: 2.97 (0.28)
CVLT Total Repetitions Raw [5, 11]: 13.67 (5.44)
CVLT Trials 1-5 Raw [5, 11]: 55.67 (3.65)
CVLT subscale scores, oxytocin versus placebo ([5]; all 9 subscales, after 3 weeks): scored higher
